Test systems include DMS 273 small cell lung; HOP-18 NSCLC; KM20L2 colon; M19-MEL melanoma; DLD-1 colon; XF 498 CNS; MDA-MB-435; PC-3 prostate; DU-145 prostate; MDA-MB-231 breast.
Assay in all cases: NCI-60 cell line screen, 48 h

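All cell lines were grown in 96-well plates and treated with compound for 48 hours. TGI denotes the concentration required for complete inhibition of growth.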 Where a SMILES comes first, the peptide text is derived from it. [ ]: non-standard residue; d: D form. 2Nal = N[CH](Cc1ccc2ccccc2c1)C(=O)O Bounds are passed on as bounds.

Turning to `COc1ccc(C[C@H](N)C(=O)N2C[C@@H](CO)C[C@@H](n3cnc4c(N(C)C)ncnc43)C2)cc1`, the TGI in the assay with DMS 273 small cell lung, with HOP-18 NSCLC, in the assay on KM20L2 colon, with M19-MEL melanoma and in the assay with DLD-1 colon was above 100 µM throughout.

As for `COc1cc2c(cc1OC)c1c(OC)c(OC)cc3c1c1c2sc(=S)n1CC3`, the TGI in the assay on DMS 273 small cell lung, with HOP-18 NSCLC, in the assay with KM20L2 colon, in the assay with M19-MEL melanoma and with DLD-1 colon was above 100 µM in each case.

`C/C(CCn1[nH]c(=O)ccc1=O)=N\Nc1ccc([N+](=O)[O-])cc1[N+](=O)[O-]`: the TGI with XF 498 CNS, with DMS 273 small cell lung, with HOP-18 NSCLC, in the assay with KM20L2 colon, in the assay on M19-MEL melanoma and in the assay with DLD-1 colon was above 100 µM in each case.

For the molecule `CCOC(=O)c1c2cccccc2n2c(=O)cc(C)nc12`, the TGI in the assay with DMS 273 small cell lung and with KM20L2 colon was above 100 µM throughout.

Consider `N#Cc1cc(NC(=O)c2ccccc2)c(=O)n2c1[nH]c1ccccc12`, for which the TGI with XF 498 CNS, in the assay on DMS 273 small cell lung, in the assay with HOP-18 NSCLC, in the assay on KM20L2 colon, with M19-MEL melanoma and in the assay on DLD-1 colon was above 100 µM in each case.

In the case of `Nc1ccc2c(c1)Oc1c(F)c(F)cc3c(=O)c(C(=O)O)cn-2c13`, the TGI in the assay with HOP-18 NSCLC, with KM20L2 colon, in the assay on M19-MEL melanoma and with DLD-1 colon was above 100 µM throughout.

As for `Cc1cc(C)nc(NS(=O)(=O)c2ccc(NC(=O)c3ccc(Cl)c4c(Nc5ccc(S(=O)(=O)N=C(N)N)cc5)c5ccccc5nc34)cc2)n1`, the TGI in the assay on XF 498 CNS, in the assay on DMS 273 small cell lung, in the assay on HOP-18 NSCLC and with KM20L2 colon was above 100 µM throughout.

Turning to `CN(C)CCNC(=O)c1cccc2ncc(-c3ccccc3)nc12`, the TGI with DMS 273 small cell lung was 17.8 µM; with HOP-18 NSCLC, above 64.3 µM; with KM20L2 colon, 38 µM; with M19-MEL melanoma, 29.5 µM; in the assay on DLD-1 colon it was 44.9 µM.

Turning to `COc1ccc(NC(=O)CCc2cc(C(C)(C)C)n[nH]2)cc1`, the TGI with XF 498 CNS, in the assay with DMS 273 small cell lung, in the assay with HOP-18 NSCLC, in the assay on KM20L2 colon and with M19-MEL melanoma was above 100 µM throughout.

Turning to `COc1cc(/C=C\c2ccc(OC(C)=O)cc2)cc(OC)c1OC`, the TGI with XF 498 CNS was 82.9 µM; in the assay on DMS 273 small cell lung, above 100 µM; in the assay with KM20L2 colon it was above 100 µM; with M19-MEL melanoma, above 100 µM; with DLD-1 colon, above 100 µM.

For the molecule `C#CCN(N=O)C(=O)NCCCC(NC(C)=O)C(=O)NCc1ccccc1` (configuration not stated), the TGI is 84.4 µM in the assay with XF 498 CNS; above 100 µM in the assay with HOP-18 NSCLC; above 100 µM with KM20L2 colon; above 100 µM in the assay on M19-MEL melanoma; above 100 µM in the assay with DLD-1 colon.

Regarding `O=C1[C@H](Cl)[C@H]2c3cc4ccccc4nc3Oc3ccccc3N12`, the TGI in the assay with DMS 273 small cell lung, with KM20L2 colon, in the assay on M19-MEL melanoma and with DLD-1 colon was above 100 µM each time.

Regarding `CC(C)C(NC(=O)C(CCCCN)NC(=O)C(Cc1c[nH]c2ccccc12)NC(=O)C(Cc1ccc(O)cc1)NC(=O)C(CS)NC(=O)C(N)Cc1ccc2ccccc2c1)C(=O)NC(CS)C(=O)NC(C(N)=O)C(C)O` (configuration not stated) (H-[2Nal]CYWKVCT-NH2; configuration not given here), the TGI with XF 498 CNS is above 100 µM; with MDA-MB-435 it was above 12.5 µM; with PC-3 prostate, above 12.5 µM; in the assay on DMS 273 small cell lung, above 100 µM; in the assay on HOP-18 NSCLC, above 100 µM; in the assay with KM20L2 colon, above 100 µM. Besides, the TGI in the assay on DU-145 prostate was above 12.5 µM; with M19-MEL melanoma it was above 100 µM; in the assay on DLD-1 colon, above 100 µM; in the assay with MDA-MB-231 breast, above 12.5 µM.

For `CC(=O)O/N=C(Cl)/C(Cl)=N/OC(C)=O`, the TGI in the assay on XF 498 CNS, in the assay with DMS 273 small cell lung, in the assay on HOP-18 NSCLC, in the assay with KM20L2 colon and with DLD-1 colon was above 100 µM each time.

Regarding `OC1CCC[C@@H]1Sc1ccccc1` (some centres not stated), the TGI with XF 498 CNS, with DMS 273 small cell lung, in the assay with KM20L2 colon, in the assay on M19-MEL melanoma and with DLD-1 colon was above 100 µM throughout.

Regarding `COC(=O)C(C(=O)C(=O)Nc1ccc(OC)cc1[N+](=O)[O-])c1nc2cc(C)c(C)cc2[nH]c1=O` (configuration not stated), the TGI in the assay with HOP-18 NSCLC, in the assay with KM20L2 colon, in the assay on M19-MEL melanoma and with DLD-1 colon was above 100 µM in each case.

Consider `O=C(c1ccccc1)c1c(CC(O)c2ccccc2)n(C(=O)c2ccccc2)c2ccccc12` (configuration not stated), for which the TGI in the assay on XF 498 CNS, in the assay with DMS 273 small cell lung, in the assay with KM20L2 colon, with M19-MEL melanoma and in the assay with DLD-1 colon was above 100 µM in each case.

Regarding `COc1cc(CC(C(=O)O)C(=O)O)c(OC)cc1CC(C(=O)O)C(=O)O`, the TGI with XF 498 CNS, in the assay on DMS 273 small cell lung, in the assay with KM20L2 colon, in the assay on M19-MEL melanoma and in the assay with DLD-1 colon was above 100 µM throughout.

Consider `COc1ccc(/C=c2/sc3n(c2=O)NC(c2ccc(Cl)cc2)NN=3)cc1` (configuration not stated), for which the TGI in the assay on XF 498 CNS, in the assay with DMS 273 small cell lung, in the assay on KM20L2 colon, in the assay with M19-MEL melanoma and in the assay with DLD-1 colon was above 100 µM throughout.

Take `Cc1nc(Nc2ccccc2)sc1C(=O)CC(=O)C(=O)NC12CC3CC(CC(C3)C1)C2`: the TGI with XF 498 CNS, in the assay on DMS 273 small cell lung, with HOP-18 NSCLC, in the assay with KM20L2 colon, in the assay on M19-MEL melanoma and in the assay on DLD-1 colon was above 100 µM in each case.

On to `NNC(=O)N/N=C1\C(=O)N(c2nccs2)C(=O)C(=O)C1c1nc2ccccc2s1` (configuration not stated), for which the TGI in the assay on XF 498 CNS is above 100 µM; in the assay on DMS 273 small cell lung, above 100 µM; with HOP-18 NSCLC, 88.5 µM; in the assay on KM20L2 colon it was above 100 µM; with M19-MEL melanoma, above 100 µM; in the assay on DLD-1 colon, above 100 µM.

As to `CC(=N)N(C)O`, the TGI in the assay on XF 498 CNS, in the assay with HOP-18 NSCLC, in the assay with KM20L2 colon, in the assay with M19-MEL melanoma and in the assay with DLD-1 colon was above 100 µM throughout.
